# Measured values published in patent US20240246964A1 (Arbutus Biopharma Corporation, priority 2021, published 2024).
# pEC50, pIC50: −log10 of the molar value.
# How the values were obtained:
# [1] = biological target: PD-L1 His protein / PD-1 Fc protein (Homo sapiens (Human), UniProt Q9NZQ7); assay: HTRF Assay (PD-1/PD-L1 interaction); assay type: binding; conditions: PD-L1 His 6 nM, PD-1 Fc 6 nM
# human PD-L1 = human PD-L1 (Homo sapiens (Human), UniProt Q9NZQ7); assay: T cell activation luciferase reporter cell culture system (T Cell Activation Assay); assay type: cell-based; conditions: luciferase reporter assay; PD-L1 aAPC/CHO-K1 cells with PD-1 effector Jurkat T cells
# Chain of human PD-L1 (Q9NZQ7 19-290): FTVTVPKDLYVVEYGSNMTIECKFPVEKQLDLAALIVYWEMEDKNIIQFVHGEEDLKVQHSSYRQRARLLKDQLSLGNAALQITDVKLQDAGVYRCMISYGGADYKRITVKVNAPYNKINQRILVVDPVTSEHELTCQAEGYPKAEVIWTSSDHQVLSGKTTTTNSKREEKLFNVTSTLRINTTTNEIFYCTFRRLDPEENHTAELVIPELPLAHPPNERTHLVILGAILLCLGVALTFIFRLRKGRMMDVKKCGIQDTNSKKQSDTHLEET
# Chain of PD-L1 His protein / PD-1 Fc protein (Q9NZQ7 19-238): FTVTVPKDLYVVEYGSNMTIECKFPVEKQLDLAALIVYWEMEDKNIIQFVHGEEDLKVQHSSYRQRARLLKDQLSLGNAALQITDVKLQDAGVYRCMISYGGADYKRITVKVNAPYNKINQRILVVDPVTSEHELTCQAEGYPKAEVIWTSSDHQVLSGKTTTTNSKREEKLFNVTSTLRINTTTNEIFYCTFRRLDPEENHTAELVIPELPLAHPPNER
SMILES,pIC50 [1],pEC50 (human PD-L1)
"COc1nc(-c2ccnc(-c3cccc4c3CCC[C@@H]4Nc3nc(OC)c(CNC[C@H](C)O)cc3C(F)(F)F)c2Cl)ccc1CNC[C@@H]1CCC(=O)N1 [Example 707, (S)-5-((((3′-Chloro-2′-((S)-5-((5-((((S)-2-hydroxypropyl)amino)methyl)-6-methoxy-3-(trifluoromethyl)pyridin-2-yl)amino)-5,6,7,8-tetrahydronaphthalen-1-yl)-6-methoxy-[2,4′-bipyridin]-5-yl)methyl)amino)methyl)pyrrolidin-2-one]",7.27,≤ 5.00
"COc1nc(-c2cccc(-c3ccnc(-c4cc(OC)c5nc(CNCC(C)(C)O)nn5c4)c3Cl)c2Cl)ccc1CNC1CCN(C(C)=O)CC1 [Example 714, 1-(4-(((6-(2-chloro-3-(3-chloro-2-(2-(((2-hydroxy-2-methylpropyl)amino)methyl)-8-methoxy-[1,2,4]triazolo[1,5-a]pyridin-6-yl)pyridin-4-yl)phenyl)-2-methoxypyridin-3-yl)methyl)amino)piperidin-1-yl)ethan-1-one]",9.27,6.60
"COc1cc(-c2ncnc(-c3cccc(-c4ccc(CNC[C@@H]5CCC(=O)N5)c(OC)n4)c3Cl)c2OC)ccc1CNC[C@@H]1CCC(=O)N1 [Example 716, (S)-5-((((6-(2-chloro-3-(5-methoxy-6-(3-methoxy-4-(((((S)-5-oxopyrrolidin-2-yl)methyl)amino)methyl)phenyl)pyrimidin-4-yl)phenyl)-2-methoxypyridin-3-yl)methyl)amino)methyl)pyrrolidin-2-one]",9.22,6.03
"COc1nc(-c2ccnc(-c3cccc4c3CCC[C@@H]4Nc3nc(OC)c(CN4CC5(CNC(=O)C5)C4)cc3C(F)(F)F)c2Cl)ccc1CNC[C@@H]1CCC(=O)N1 [Example 720, 2-((6-(((S)-5-(3′-Chloro-6-methoxy-5-(((((S)-5-oxopyrrolidin-2-yl)methyl)amino)methyl)-[2,4′-bipyridin]-2′-yl)-1,2,3,4-tetrahydronaphthalen-1-yl)amino)-2-methoxy-5-(trifluoromethyl)pyridin-3-yl)methyl)-2,6-diazaspiro[3.4]octan-7-one]",7.46,≤ 5.00
"COc1cc(-c2nccc(-c3cccc4c3CCC[C@@H]4Nc3nc(OC)c(CN4CC5(CNC(=O)C5)C4)cc3C(F)(F)F)c2Cl)ccc1CNC[C@@H]1CCC(=O)N1 [Example 724, 2-((6-(((S)-5-(3-Chloro-2-(3-methoxy-4-(((((S)-5-oxopyrrolidin-2-yl)methyl)amino)methyl)phenyl)pyridin-4-yl)-1,2,3,4-tetrahydronaphthalen-1-yl)amino)-2-methoxy-5-(trifluoromethyl)pyridin-3-yl)methyl)-2,6-diazaspiro[3.4]octan-7-one]",6.23,≤ 5.00
"Cc1c(NC(=O)c2ccc(CNC[C@@H]3CCC(=O)N3)cn2)cccc1-c1ccnc(-c2ccc(CNC[C@@H]3CCC(=O)N3)c(OC(F)F)c2)c1Cl [Example 725, N-(3-(3-Chloro-2-(3-(difluoromethoxy)-4-(((((S)-5-oxopyrrolidin-2-yl)methyl)amino)methyl)phenyl)pyridin-4-yl)-2-methylphenyl)-5-(((((S)-5-oxopyrrolidin-2-yl)methyl)amino)methyl)picolinamide]",9.28,6.92
"COc1cc(-c2nccc(-c3cccc(NC(=O)c4ccc(CNC[C@@H]5CCC(=O)N5)cn4)c3C)c2Cl)cc(F)c1CNC[C@@H]1CCC(=O)N1 [Example 726, N-(3-(3-Chloro-2-(3-fluoro-5-methoxy-4-(((((S)-5-oxopyrrolidin-2-yl)methyl)amino)methyl)phenyl)pyridin-4-yl)-2-methylphenyl)-5-(((((S)-5-oxopyrrolidin-2-yl)methyl)amino)methyl)picolinamide]",9.38,7.31
"COc1cc(-c2nccc(-c3cccc(NC(=O)c4ccc(CNCCO)cn4)c3C)c2Cl)ccc1CNC[C@@H]1CCC(=O)N1 [Example 735, (S)—N-(3-(3-Chloro-2-(3-methoxy-4-((((5-oxopyrrolidin-2-yl)methyl)amino)methyl)phenyl)pyridin-4-yl)-2-methylphenyl)-5-(((2-hydroxyethyl)amino)methyl)picolinamide]",10.52,7.81
"COc1cc(-c2nccc(-c3cccc(NC(=O)c4ccc(CNC[C@@H]5CCC(=O)N5)cn4)c3C)c2Cl)ccc1CNCCCF [Example 749, (S)—N-(3-(3-Chloro-2-(4-(((3-fluoropropyl)amino)methyl)-3-methoxyphenyl)pyridin-4-yl)-2-methylphenyl)-5-((((5-oxopyrrolidin-2-yl)methyl)amino)methyl)picolinamide]",9.48,6.34
"COc1cc(-c2nccc(-c3cccc(NC(=O)c4ccc(CNCCO)cn4)c3Cl)c2Cl)ccc1CNC[C@@H]1CCC(=O)N1 [Example 755, (S)—N-(2-Chloro-3-(3-chloro-2-(3-methoxy-4-((((5-oxopyrrolidin-2-yl)methyl)amino)methyl)phenyl)pyridin-4-yl)phenyl)-5-(((2-hydroxyethyl)amino)methyl)picolinamide]",9.92,8.35
"CNCc1ccc(C(=O)Nc2cccc(-c3ccnc(-c4ccc(CNC[C@@H]5CCC(=O)N5)c(OC)c4)c3Cl)c2C)nc1 [Example 756, (S)—N-(3-(3-chloro-2-(3-methoxy-4-((((5-oxopyrrolidin-2-yl)methyl)amino)methyl)phenyl)pyridin-4-yl)-2-methylphenyl)-5-((methylamino)methyl)picolinamide]",9.70,7.20
"COc1cc(-c2nccc(-c3cccc(NC(=O)c4ccc(CNCCO)cn4)c3Cl)c2Cl)ccc1CN1CC2(C1)CN(C(C)=O)C2 [Example 757, N-(3-(2-(4-((6-Acetyl-2,6-diazaspiro[3.3]heptan-2-yl)methyl)-3-methoxyphenyl)-3-chloropyridin-4-yl)-2-chlorophenyl)-5-(((2-hydroxyethyl)amino)methyl)picolinamide]",9.33,7.06
"COc1nc(-c2cccc(-c3nccc(-c4ccc(CN5CCC(O)CC5)c(OC)n4)c3Cl)c2Cl)ccc1CN1CCC(O)CC1 [Example 759, 1-((3′-Chloro-2′-(2-chloro-3-(5-((4-hydroxypiperidin-1-yl)methyl)-6-methoxypyridin-2-yl)phenyl)-6-methoxy-[2,4′-bipyridin]-5-yl)methyl)piperidin-4-ol]",9.20,7.77
"COc1nc(-c2cccc(-c3nccc(-c4ccc(CN5CC6(CCN(C(C)=O)C6)C5)c(OC)n4)c3Cl)c2Cl)ccc1CN1CC2(CCN(C(C)=O)C2)C1 [Example 760, 1-(2-((6-(3-(5-((6-Acetyl-2,6-diazaspiro[3.4]octan-2-yl)methyl)-3′-chloro-6-methoxy-[2,4′-bipyridin]-2′-yl)-2-chlorophenyl)-2-methoxypyridin-3-yl)methyl)-2,6-diazaspiro[3.4]octan-6-yl)ethan-1-one]",9.49,7.72
"COc1nc(-c2cccc(-c3nccc(-c4ccc(CN5CCC(O)CC5)c(OC)n4)c3Cl)c2Cl)ccc1CNC1CCN(C(C)=O)CC1 [Example 761, 1-(4-(((6-(2-Chloro-3-(3′-chloro-5-((4-hydroxypiperidin-1-yl)methyl)-6-methoxy-[2,4′-bipyridin]-2′-yl)phenyl)-2-methoxypyridin-3-yl)methyl)amino)piperidin-1-yl)ethan-1-one]",9.06,7.77
"COc1cc(-c2nccc(-c3cccc(NC(=O)c4ccc(CNCCO)cn4)c3C)c2Cl)cc(F)c1CNCCO [Example 762, N-(3-(3-chloro-2-(3-fluoro-4-(((2-hydroxyethyl)amino)methyl)-5-methoxyphenyl)pyridin-4-yl)-2-methylphenyl)-5-(((2-hydroxyethyl)amino)methyl)picolinamide]",9.12,7.30
"COc1nc(-c2ccnc(-c3cccc(NC(=O)c4ccc(CNCCO)cn4)c3C)c2Cl)ccc1CNC1CCOCC1 [Example 766, N-(3-(3′-Chloro-6-methoxy-5-(((tetrahydro-2H-pyran-4-yl)amino)methyl)-[2,4′-bipyridin]-2′-yl)-2-methylphenyl)-5-(((2-hydroxyethyl)amino)methyl)picolinamide]",9.49,6.82
"COc1cc(-c2nccc(-c3cccc(NC(=O)c4ccc(CNCCO)cn4)c3Cl)c2Cl)ccc1CNC1CCOCC1 [Example 768, N-(2-Chloro-3-(3-chloro-2-(3-methoxy-4-(((tetrahydro-2H-pyran-4-yl)amino)methyl)phenyl)pyridin-4-yl)phenyl)-5-(((2-hydroxyethyl)amino)methyl)picolinamide]",10.00,7.78
"COc1nc(-c2ccnc(-c3cccc(NC(=O)c4ccc(CNCCO)cn4)c3C)c2Cl)ccc1CNC1CCN(C(C)=O)CC1 [Example 769, N-(3-(5-(((1-Acetylpiperidin-4-yl)amino)methyl)-3′-chloro-6-methoxy-[2,4′-bipyridin]-2′-yl)-2-methylphenyl)-5-(((2-hydroxyethyl)amino)methyl)picolinamide]",9.62,7.22
"Cc1c(NC(=O)c2ccc(CNCCO)cn2)cccc1-c1ccnc(-c2ccc(CNC[C@@H]3CCC(=O)N3)c(OC(F)F)c2)c1Cl [Example 770, (S)—N-(3-(3-Chloro-2-(3-(difluoromethoxy)-4-((((5-oxopyrrolidin-2-yl)methyl)amino)methyl)phenyl)pyridin-4-yl)-2-methylphenyl)-5-(((2-hydroxyethyl)amino)methyl)picolinamide]",9.12,7.61
"COc1nc(-c2ccnc(-c3cccc(NC(=O)c4ccc(CNCCO)cn4)c3C)c2Cl)ccc1CNC[C@@H]1CCC(=O)N1 [Example 771, (S)—N-(3-(3′-chloro-6-methoxy-5-((((5-oxopyrrolidin-2-yl)methyl)amino)methyl)-[2,4′-bipyridin]-2′-yl)-2-methylphenyl)-5-(((2-hydroxyethyl)amino)methyl)picolinamide]",10.52,7.54
